# In the supplement of paper PMC10307832:
# What was measured:
# Assay in all cases: relative viability (nuclei count vs DMSO), 5 days (fraction); higher = more cells survive
# 201T = tested on: 201T
# Method in brief: (§1)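 Lung cancer cell lines, seeded in 1536-well plates, were treated the following day by pin tool with a single drug or with five library-drug doses (not always all listed) in √10 steps on top of a fixed anchor-drug dose. Cells were fixed and nuclei stained in one step after 5 days, and nuclei were counted. Relative viability is the nuclei count for treated wells divided by that for vehicle wells, reported as medians of duplicate plates.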
# A-427 = tested on: A-427
# Method in brief: as §1
# COR-L23 = tested on: COR-L23
# Method in brief: as §1
# H3255 = tested on: H3255
# Method in brief: as §1
# LCLC-103H = tested on: LCLC-103H
# Method in brief: as §1
# LCLC-97TM1 = tested on: LCLC-97TM1
# Method in brief: as §1
# LK-2 = tested on: LK-2
# Method in brief: as §1
# LU99A = tested on: LU99A
# Method in brief: as §1
# NCI-H1563 = tested on: NCI-H1563
# Method in brief: as §1
# NCI-H1650 = tested on: NCI-H1650
# Method in brief: as §1
# NCI-H1651 = tested on: NCI-H1651
# Method in brief: as §1
# NCI-H1944 = tested on: NCI-H1944
# Method in brief: as §1
# NCI-H2347 = tested on: NCI-H2347
# Method in brief: as §1
# NCI-H23 = tested on: NCI-H23
# Method in brief: as §1
# NCI-H460 = tested on: NCI-H460
# Method in brief: as §1
# NCI-H650 = tested on: NCI-H650
# Method in brief: as §1
# NCI-H727 = tested on: NCI-H727
# Method in brief: as §1
# NCI-H838 = tested on: NCI-H838
# Method in brief: as §1
# PC-14 = tested on: PC-14
# Method in brief: as §1
# PC-3 [JPC-3] = tested on: PC-3 [JPC-3]
# Method in brief: as §1
# RERF-LC-KJ = tested on: RERF-LC-KJ
# Method in brief: as §1
# SW 1573 = tested on: SW 1573
# Method in brief: as §1
smiles,measurement,setting,value
Clc1ccc(Nc2nnc(Cc3ccncc3)c3ccccc23)cc1 [Vatalanib] + C[C@@H](Oc1cc(-c2cnn(C3CCNCC3)c2)cnc1N)c1c(Cl)ccc(F)c1Cl [Crizotinib] (partner 1 µM),relative viability,201T; first compound 0.04 µM,1
same,relative viability,201T; first compound 0.1265 µM,1.07
same,relative viability,201T; first compound 0.4 µM,1.03
same,relative viability,201T; first compound 1.265 µM,0.991
same,relative viability,201T; first compound 4 µM,1.07
same,relative viability,A-427; first compound 0.04 µM,1.03
same,relative viability,A-427; first compound 0.1265 µM,0.891
same,relative viability,A-427; first compound 0.4 µM,0.994
same,relative viability,A-427; first compound 1.265 µM,0.879
same,relative viability,A-427; first compound 4 µM,0.948
same,relative viability,COR-L23; first compound 0.04 µM,0.7
same,relative viability,COR-L23; first compound 0.1265 µM,0.558
same,relative viability,COR-L23; first compound 0.4 µM,0.668
same,relative viability,COR-L23; first compound 1.265 µM,0.683
same,relative viability,COR-L23; first compound 4 µM,0.632
same,relative viability,H3255; first compound 0.04 µM,0.986
same,relative viability,H3255; first compound 0.1265 µM,0.878
same,relative viability,H3255; first compound 0.4 µM,0.718
same,relative viability,H3255; first compound 1.265 µM,0.802
same,relative viability,H3255; first compound 4 µM,0.85
same,relative viability,LCLC-103H; first compound 0.04 µM,1.04
same,relative viability,LCLC-103H; first compound 0.1265 µM,1.04
same,relative viability,LCLC-103H; first compound 0.4 µM,1.15
same,relative viability,LCLC-103H; first compound 1.265 µM,0.999
same,relative viability,LCLC-103H; first compound 4 µM,1.11
same,relative viability,LCLC-97TM1; first compound 0.04 µM,0.308
same,relative viability,LCLC-97TM1; first compound 0.1265 µM,0.312
same,relative viability,LCLC-97TM1; first compound 0.4 µM,0.447
same,relative viability,LCLC-97TM1; first compound 1.265 µM,0.386
same,relative viability,LCLC-97TM1; first compound 4 µM,0.365
same,relative viability,LK-2; first compound 0.04 µM,0.243
same,relative viability,LK-2; first compound 0.1265 µM,0.232
same,relative viability,LK-2; first compound 1.265 µM,0.252
same,relative viability,LK-2; first compound 4 µM,0.233
same,relative viability,LU99A; first compound 0.04 µM,0.597
same,relative viability,LU99A; first compound 0.1265 µM,0.524
same,relative viability,LU99A; first compound 0.4 µM,0.63
same,relative viability,LU99A; first compound 1.265 µM,0.528
same,relative viability,LU99A; first compound 4 µM,0.513
same,relative viability,NCI-H1563; first compound 0.04 µM,0.848
same,relative viability,NCI-H1563; first compound 0.1265 µM,0.754
same,relative viability,NCI-H1563; first compound 0.4 µM,0.961
same,relative viability,NCI-H1563; first compound 1.265 µM,0.818
same,relative viability,NCI-H1563; first compound 4 µM,0.859
same,relative viability,NCI-H1650; first compound 0.04 µM,0.933
same,relative viability,NCI-H1650; first compound 0.1265 µM,0.997
same,relative viability,NCI-H1650; first compound 0.4 µM,1.06
same,relative viability,NCI-H1650; first compound 1.265 µM,0.92
same,relative viability,NCI-H1650; first compound 4 µM,1.05
same,relative viability,NCI-H1651; first compound 0.04 µM,0.865
same,relative viability,NCI-H1651; first compound 0.1265 µM,0.839
same,relative viability,NCI-H1651; first compound 0.4 µM,0.858
same,relative viability,NCI-H1651; first compound 1.265 µM,0.86
same,relative viability,NCI-H1651; first compound 4 µM,0.925
same,relative viability,NCI-H1944; first compound 0.04 µM,1.13
same,relative viability,NCI-H1944; first compound 0.1265 µM,0.986
same,relative viability,NCI-H1944; first compound 0.4 µM,1.23
same,relative viability,NCI-H1944; first compound 1.265 µM,1.1
same,relative viability,NCI-H1944; first compound 4 µM,1.05
same,relative viability,NCI-H2347; first compound 0.04 µM,0.642
same,relative viability,NCI-H2347; first compound 0.1265 µM,0.69
same,relative viability,NCI-H2347; first compound 0.4 µM,0.654
same,relative viability,NCI-H2347; first compound 1.265 µM,0.817
same,relative viability,NCI-H2347; first compound 4 µM,0.732
same,relative viability,NCI-H23; first compound 0.04 µM,0.505
same,relative viability,NCI-H23; first compound 0.1265 µM,0.49
same,relative viability,NCI-H23; first compound 0.4 µM,0.491
same,relative viability,NCI-H23; first compound 1.265 µM,0.622
same,relative viability,NCI-H23; first compound 4 µM,0.564
same,relative viability,NCI-H460; first compound 0.04 µM,0.878
same,relative viability,NCI-H460; first compound 0.1265 µM,0.827
same,relative viability,NCI-H460; first compound 0.4 µM,1.21
same,relative viability,NCI-H460; first compound 1.265 µM,0.748
same,relative viability,NCI-H460; first compound 4 µM,0.856
same,relative viability,NCI-H650; first compound 0.04 µM,0.726
same,relative viability,NCI-H650; first compound 0.1265 µM,0.627
same,relative viability,NCI-H650; first compound 1.265 µM,0.641
same,relative viability,NCI-H650; first compound 4 µM,0.606
same,relative viability,NCI-H727; first compound 0.04 µM,0.689
same,relative viability,NCI-H727; first compound 0.1265 µM,0.603
same,relative viability,NCI-H727; first compound 0.4 µM,0.992
same,relative viability,NCI-H727; first compound 1.265 µM,0.693
same,relative viability,NCI-H727; first compound 4 µM,0.654
same,relative viability,NCI-H838; first compound 0.04 µM,0.837
same,relative viability,NCI-H838; first compound 0.1265 µM,0.867
same,relative viability,NCI-H838; first compound 0.4 µM,1.01
same,relative viability,NCI-H838; first compound 1.265 µM,0.73
same,relative viability,NCI-H838; first compound 4 µM,0.79
same,relative viability,PC-14; first compound 0.04 µM,0.976
same,relative viability,PC-14; first compound 0.1265 µM,0.916
same,relative viability,PC-14; first compound 0.4 µM,0.956
same,relative viability,PC-14; first compound 1.265 µM,0.825
same,relative viability,PC-14; first compound 4 µM,0.865
same,relative viability,PC-3 [JPC-3]; first compound 0.04 µM,0.978
same,relative viability,PC-3 [JPC-3]; first compound 0.1265 µM,0.872
same,relative viability,PC-3 [JPC-3]; first compound 0.4 µM,0.967
same,relative viability,PC-3 [JPC-3]; first compound 1.265 µM,0.937
same,relative viability,PC-3 [JPC-3]; first compound 4 µM,0.949
same,relative viability,RERF-LC-KJ; first compound 0.04 µM,0.881
same,relative viability,RERF-LC-KJ; first compound 0.1265 µM,0.766
same,relative viability,RERF-LC-KJ; first compound 0.4 µM,0.88
same,relative viability,RERF-LC-KJ; first compound 1.265 µM,0.792
same,relative viability,RERF-LC-KJ; first compound 4 µM,0.799
same,relative viability,SW 1573; first compound 0.04 µM,0.918
same,relative viability,SW 1573; first compound 0.1265 µM,0.721
same,relative viability,SW 1573; first compound 0.4 µM,0.942
same,relative viability,SW 1573; first compound 1.265 µM,0.627
same,relative viability,SW 1573; first compound 4 µM,0.817
